Results as given in ChEMBL document CHEMBL3232984, “Synthesis and tripanocidal activity of ferrocenyl and benzyl diamines against Trypanosoma brucei and Trypanosoma cruzi” (Bioorg Med Chem Lett, 2014).

Experiments:
[1] = system: HepG2; assay: Cytotoxicity against human HepG2 cells by MTT assay; assay type: cell-based
[2] = system: Trypanosoma brucei; assay: Antimicrobial activity against procyclic stage of Trypanosoma brucei 427 after 24 hrs by MTT assay; assay type: functional, organism-based; conditions: Trypanosoma brucei, 427, 24 h
[3] = Safety index, ratio of IC50 for human HepG2 cells to IC50 for procyclic stage of Trypanosoma brucei 427; assay type: toxicity, cell-based; conditions: HepG2 cells versus procyclic stage of Trypanosoma brucei 427, read-out: Ratio IC50
[4] = system: Trypanosoma brucei; assay: Antimicrobial activity against […] 29-13 after 24 hrs by MTT assay; assay type: functional, organism-based; conditions: 29-13, 24 h
[5] = Safety index, ratio of IC50 for human HepG2 cells to IC50 for […] 29-13; assay type: toxicity, cell-based; conditions: read-out: Ratio IC50
[6] = system: Trypanosoma cruzi; assay: Antimicrobial activity against epimastigote stage of Trypanosoma cruzi Y after 72 hrs by MTT assay; assay type: functional, organism-based
[7] = Safety index, ratio of IC50 for human HepG2 cells to IC50 for epimastigote stage of Trypanosoma cruzi Y; assay type: toxicity, cell-based; conditions: HepG2 cells versus epimastigote stage of Trypanosoma cruzi Y, read-out: Ratio IC50

Compound | IC50 [1] [µM] | IC50 [2] [µM] | selectivity ratio [3] | IC50 [4] [µM] | selectivity ratio [5] | IC50 [6] [µM] | selectivity ratio [7]
O=C(Cn1ccnc1[N+](=O)[O-])NCc1ccccc1 [BENZNIDAZOLE] | 2130 | 208 | 10.2 | 150 | 14.2 | 34 | 62.5
N=C(N)c1ccc(OCCCCCOc2ccc(C(=N)N)cc2)cc1 [PENTAMIDINE] | 160 | 6.43 | 24.8 | 6.43 | 24.8 | 4.58 | 34.9
COc1ccc(CNCCNCc2ccc(OC)cc2)cc1 | 991 | 8.25 | 120 | 8.63 | 115 | 10.9 | 90.9
Cl.Cl.c1ccc(CNCCNCc2ccccc2)cc1 | 224 | 11.1 | 20.2 | 9.99 | 22.4 | 160 | 1.4
Oc1ccccc1CNCCNCc1ccccc1O | 148 | 4.61 | 32.1 | 5.16 | 28.7 | 109 | 1.36
Clc1ccc(CNCCNCc2ccc(Cl)cc2Cl)c(Cl)c1 | 281 | 12.3 | 22.7 | 16.8 | 16.7 | 51.4 | 5.45
O=[N+]([O-])c1ccc(CNCCNCc2ccc([N+](=O)[O-])cc2)cc1 | 590 | 36.6 | 16.1 | 19.2 | 30.7 | 122 | 4.84
